Measured values taken from BindingDB's records for patent US20250313563 (The Broad Institute, 2025).
“And” between values parts separate entries of the source, which are not always exact repeats. Identical values can stand only once.

Columns and labels:
[1] = target: Glycogen synthase kinase-3 beta (Homo sapiens, UniProt P49841); test: TR-FRET Assay
Method in brief: (§1)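 30 min preinc w/ cpd in assay buffer → kinase rxn → EDTA quench → add detection mix (40 nM SA-d2, 2 nM Tb-pSer641 Ab) → TR-FRET read.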

[2] = target: Glycogen synthase kinase-3 alpha (Homo sapiens, UniProt P49840); test: TR-FRET Assay
Method in brief: as §1

Glycogen synthase kinase-3 beta, sequence (P49841 whole entry): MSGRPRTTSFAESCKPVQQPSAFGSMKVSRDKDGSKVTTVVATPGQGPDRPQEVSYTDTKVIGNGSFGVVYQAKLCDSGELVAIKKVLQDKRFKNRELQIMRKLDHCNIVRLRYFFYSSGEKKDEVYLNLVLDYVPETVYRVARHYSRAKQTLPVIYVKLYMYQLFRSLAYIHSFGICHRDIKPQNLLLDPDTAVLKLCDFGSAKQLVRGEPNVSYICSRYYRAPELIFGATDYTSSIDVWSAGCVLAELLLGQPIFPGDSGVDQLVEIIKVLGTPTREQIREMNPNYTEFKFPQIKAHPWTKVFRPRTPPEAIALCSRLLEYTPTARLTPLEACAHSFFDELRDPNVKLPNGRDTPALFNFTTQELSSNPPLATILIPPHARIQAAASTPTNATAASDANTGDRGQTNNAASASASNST
Glycogen synthase kinase-3 alpha, sequence (P49840 whole entry): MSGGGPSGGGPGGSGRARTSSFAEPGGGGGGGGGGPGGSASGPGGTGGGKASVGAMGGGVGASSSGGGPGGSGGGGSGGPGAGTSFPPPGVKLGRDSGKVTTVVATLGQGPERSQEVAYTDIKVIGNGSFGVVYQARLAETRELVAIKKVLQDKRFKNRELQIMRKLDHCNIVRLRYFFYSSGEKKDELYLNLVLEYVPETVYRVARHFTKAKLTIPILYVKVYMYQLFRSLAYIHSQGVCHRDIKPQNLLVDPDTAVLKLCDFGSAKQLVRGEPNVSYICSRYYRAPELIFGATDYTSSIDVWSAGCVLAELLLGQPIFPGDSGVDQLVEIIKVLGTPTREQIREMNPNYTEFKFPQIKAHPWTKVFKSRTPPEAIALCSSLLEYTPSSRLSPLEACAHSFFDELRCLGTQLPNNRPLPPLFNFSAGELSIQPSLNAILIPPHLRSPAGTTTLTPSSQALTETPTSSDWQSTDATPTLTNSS

| SMILES | IC50 [1] | IC50 [2] |
| --- | --- | --- |
| CC1(C)CC(=O)C2=C(C1)NC1=C(CN=N1)C21CN(S(=O)(=O)C2CCCCC2)C1 [US20250313563, Compound 918275] | < 0.1 µM | < 0.1 µM |
| COc1cccc(S(=O)(=O)N2CC3(C2)C2=C(N=NC2)NC2=C3C(=O)CC(C)(C)C2)c1 [US20250313563, Compound 918276] | < 0.1 µM | < 0.1 µM |
| CC1(C)CC(=O)C2=C(C1)NC1=C(CN=N1)C21CN(S(=O)(=O)c2cccc(F)c2)C1 [US20250313563, Compound 918278] | < 0.1 µM | < 0.1 µM |
| CCC1(c2cccc(N3CCOc4ncccc43)c2)C2=CN=NC2NC2=C1C(=O)CC(C)(C)C2 (stereo unspecified) [US20250313563, Compound 918279] | < 0.1 µM | < 0.1 µM |
| CCC1(c2cccc(N3CCOc4ccccc43)c2)C2=CN=NC2NC2=C1C(=O)CC(C)(C)C2 (stereo unspecified) [US20250313563, Compound 918280] | < 0.1 µM | < 0.1 µM |
| CCC1(c2cccc(-c3ccnc(C)c3F)c2)C2=CN=NC2NC2=C1C(=O)CC(C)(C)C2 (stereo unspecified) [US20250313563, Compound 918281] | 0.1 to 1 µM | < 0.1 µM |
| CC1(C)CC2=C(C(=O)[C@H]1F)[C@]1(CC[C@H](C(F)(F)F)CC1)C1=C(N=NC1)N2 [US20250313563, Compound 918282] | < 0.1 µM | < 0.1 µM |
| CC1(C)CC2=C(C(=O)[C@@H]1F)[C@]1(CC[C@H](C(F)(F)F)CC1)C1=CN=NC1N2 (stereo partly specified) [US20250313563, Compound 918283] | < 0.1 µM | < 0.1 µM |
| CC1(C)CC(=O)C2=C(NC3=C(CN=N3)[C@]23CC[C@@H](C(F)(F)F)CC3)[C@@H]1F [US20250313563, Compound 918284] | < 0.1 µM | < 0.1 µM |
| CC1(C)CC(=O)C2=C(NC3=C(CN=N3)[C@]23CC[C@@H](C(F)(F)F)CC3)[C@H]1F [US20250313563, Compound 918285] | 0.1 to 1 µM and > 5 µM | < 0.1 µM and 1 to 5 µM |
| CCC1(c2cccc(C(F)(F)F)c2)C2=CN=NC2NC2=C1C(=O)N(c1ccccc1)C2 (stereo unspecified) [US20250313563, Compound 918313] | 1 to 5 µM | 0.1 to 1 µM |
| C[C@@H]1C[C@@]2(CCN1S(C)(=O)=O)C1=C(N=NC1)NC1=C2C(=O)CC(C)(C)C1 [US20250313563, Compound 918315] | 0.1 to 1 µM | 0.1 to 1 µM |
| C[C@@H]1C[C@]2(CCN1S(C)(=O)=O)C1=CN=NC1NC1=C2C(=O)CC(C)(C)C1 (stereo partly specified) [US20250313563, Compound 918316] | 0.1 to 1 µM | < 0.1 µM |
| CC[C@@]1(c2cccc(N3CCC[C@H]3C)c2)C2=CN=NC2NC2=C1C(=O)CC(C)(C)C2 (stereo partly specified) [US20250313563, Compound 918322] | > 5 µM | > 5 µM |
| CC[C@]1(c2cccc(N3C[C@@H](C)[C@@H](C)C3)c2)C2=CN=NC2NC2=C1C(=O)CC(C)(C)C2 (stereo partly specified) [US20250313563, Compound 918326] | 0.1 to 1 µM | 0.1 to 1 µM |
| CCC1(c2cccc(C(F)(F)F)c2)C2=CN=NC2NC2=C1C(=O)NCC2C (stereo unspecified) [US20250313563, Compound 919318] | 0.1 to 1 µM | < 0.1 µM |
| CCN(c1cccc(C2(CC)C3=CN=NC3NC3=C2C(=O)CC(C)(C)C3)c1)c1ncccn1 (stereo unspecified) [US20250313563, Compound 919840] | < 0.1 µM | < 0.1 µM |
| CC1(C)CC(=O)C2=C(C1)NC1=C(CN=N1)[C@]21CCOC(C)(C)C1 [US20250313563, Compound 924298] | 1 to 5 µM | 1 to 5 µM |
| CC1(C)CC(=O)C2=C(C1)NC1=C(CN=N1)[C@@]21CCOC(C)(C)C1 [US20250313563, Compound 924299] | 0.1 to 1 µM | 0.1 to 1 µM |
| CC1(C)CC(=O)C2=C(C1)NC1=C(CN=N1)[C@@]21CCOC2(CCOCC2)C1 [US20250313563, Compound 924306] | 0.1 to 1 µM | 0.1 to 1 µM |
| C[C@H]1C[C@@]2(CCO1)C1=C(N=NC1)NC1=C2C(=O)CC(C)(C)C1 [US20250313563, Compound 924307] | 0.1 to 1 µM | 0.1 to 1 µM |
| C[C@@H]1C[C@]2(CCO1)C1=C(N=NC1)NC1=C2C(=O)CC(C)(C)C1 [US20250313563, Compound 924308] | 0.1 to 1 µM | 0.1 to 1 µM |
| C[C@H]1COCC[C@]12C1=CN=NC1NC1=C2C(=O)CC(C)(C)C1 (stereo partly specified) [US20250313563, Compound 924309] | > 5 µM | 1 to 5 µM |
| C[C@@H]1COCC[C@@]12C1=CN=NC1NC1=C2C(=O)CC(C)(C)C1 (stereo partly specified) [US20250313563, Compound 924310] | > 5 µM | > 5 µM |
| CC[C@H]1C[C@@]2(CCO1)C1=C(N=NC1)NC1=C2C(=O)CC(C)(C)C1 [US20250313563, Compound 924311] | 1 to 5 µM | 0.1 to 1 µM |
| CC[C@]1(c2cccc(N3C[C@H](C)[C@@H](C)C3)c2)C2=CN=NC2NC2=C1C(=O)CC(C)(C)C2 (stereo partly specified) [US20250313563, Compound 924312] | 1 to 5 µM | 0.1 to 1 µM |
| CC[C@]1(c2cccc(N3C[C@@H](C)[C@H](C)C3)c2)C2=CN=NC2NC2=C1C(=O)CC(C)(C)C2 (stereo partly specified) [US20250313563, Compound 924504] | 0.1 to 1 µM | 0.1 to 1 µM |

| SMILES | IC50 [1] | IC50 [2] |
| --- | --- | --- |
| CC[C@@]1(c2cccc(N3C[C@H](C)[C@@H](C)C3)c2)C2=CN=NC2NC2=C1C(=O)CC(C)(C)C2 (stereo partly specified) [US20250313563, Compound 924520] | > 5 µM | > 5 µM |
| CC[C@@]1(c2cccc(N3C[C@@H](C)[C@H](C)C3)c2)C2=CN=NC2NC2=C1C(=O)CC(C)(C)C2 (stereo partly specified) [US20250313563, Compound 924543] | > 5 µM | 1 to 5 µM |
| CC[C@@H]1C[C@]2(CCO1)C1=C(N=NC1)NC1=C2C(=O)CC(C)(C)C1 [US20250313563, Compound 924715] | 0.1 to 1 µM | < 0.1 µM |
| CC[C@]1(c2cccc(-c3ccnc(C)c3)c2)C2=CN=NC2NC2=C1C(=O)N[C@H](C)C2 (stereo partly specified) [US20250313563, Compound 926212] | 1 to 5 µM | < 0.1 µM |
| CC[C@]1(c2cccc(-c3ccnc(C)c3)c2)C2=CN=NC2NC2=C1C(=O)N[C@@H](C)C2 (stereo partly specified) [US20250313563, Compound 926299] | > 5 µM | 1 to 5 µM |
| CC[C@@]1(c2cccc(-c3ccnc(C)c3)c2)C2=CN=NC2NC2=C1C(=O)N[C@H](C)C2 (stereo partly specified) [US20250313563, Compound 926300] | 0.1 to 1 µM and > 5 µM | < 0.1 µM and 0.1 to 1 µM |
| CC[C@@]1(c2cccc(-c3ccnc(C)c3)c2)C2=CN=NC2NC2=C1C(=O)N[C@@H](C)C2 (stereo partly specified) [US20250313563, Compound 926302] | > 5 µM | 1 to 5 µM |
| CCC1(c2cccc(N(C)c3nc(C)cc(C)n3)c2)C2=CN=NC2NC2=C1C(=O)CC(C)(C)C2 (stereo unspecified) [US20250313563, Compound 926304] | 1 to 5 µM | 0.1 to 1 µM |
| C[C@H]1C[C@]2(CCN1S(=O)(=O)c1ccn(C)n1)C1=C(N=NC1)NC1=C2C(=O)CC(C)(C)C1 [US20250313563, Compound 926815] | < 0.1 µM | < 0.1 µM |
| CC1(C)CC(=O)C2=C(C1)NC1=C(CN=N1)[C@]21COC2(CN(S(C)(=O)=O)C2)C1 [US20250313563, Compound 926823] | 1 to 5 µM | 0.1 to 1 µM |
| C[C@H]1C[C@@]2(CCN1S(C)(=O)=O)C1=CN=NC1NC1=C2C(=O)CC(C)(C)C1 (stereo partly specified) [US20250313563, Compound 926827] | < 0.1 µM | < 0.1 µM |
| C[C@H]1C[C@@]2(CCN1S(=O)(=O)c1ccn(C)n1)C1=C(N=NC1)NC1=C2C(=O)CC(C)(C)C1 [US20250313563, Compound 926832] | 0.1 to 1 µM | < 0.1 µM |
| CCC1(c2cccc(-c3cnn4c3CCCC4)c2)C2=CN=NC2NC2=C1C(=O)CC(C)(C)C2 (stereo unspecified) [US20250313563, Compound 926836] | 0.1 to 1 µM | < 0.1 µM |
| CCC1(c2cccc(-c3cn(C)nc3C)c2)C2=CN=NC2NC2=C1C(=O)CC(C)(C)C2 (stereo unspecified) [US20250313563, Compound 926840] | < 0.1 µM | < 0.1 µM |
| CCC1(c2cccc(-c3cnnc(C)c3)c2)C2=CN=NC2NC2=C1C(=O)CC(C)(C)C2 (stereo unspecified) [US20250313563, Compound 926844] | 0.1 to 1 µM | < 0.1 µM |
| CC(=O)N1CC2(C1)C[C@@]1(CO2)C2=C(N=NC2)NC2=C1C(=O)CC(C)(C)C2 [US20250313563, Compound 926861] | < 0.1 µM | < 0.1 µM |
| CC(=O)N1CC2(C1)C[C@]1(CO2)C2=C(N=NC2)NC2=C1C(=O)CC(C)(C)C2 [US20250313563, Compound 926872] | 0.1 to 1 µM | 0.1 to 1 µM |
| CC[C@]1(c2cccc(-c3ccnc(C)c3)c2)C2=CN=NC2NC2=C1C(=O)NC(C)(C)C2 (stereo partly specified) [US20250313563, Compound 927325] | 0.1 to 1 µM | 0.1 to 1 µM |
| CC[C@@]1(c2cccc(-c3ccnc(C)c3)c2)C2=CN=NC2NC2=C1C(=O)NC(C)(C)C2 (stereo partly specified) [US20250313563, Compound 927326] | > 5 µM | 0.1 to 1 µM |
| CC[C@@]1(c2cccc(N(C)c3cccc(C(F)(F)F)n3)c2)C2=CN=NC2NC2=C1C(=O)CC(C)(C)C2 (stereo partly specified) [US20250313563, Compound 927338] | 0.1 to 1 µM | < 0.1 µM |
| CC[C@@]1(c2cccc(-c3ccnc(C)c3F)c2)C2=C(CC(C)(C)CC2=O)NC2N=NC(C)=C21 (stereo partly specified) [US20250313563, Compound 927340] | > 5 µM | > 5 µM |
| CC[C@]1(c2cccc(NS(C)(=O)=O)c2)C2=CN=NC2NC2=C1C(=O)CC(C)(C)C2 (stereo partly specified) [US20250313563, Compound 927341] | 1 to 5 µM | 1 to 5 µM |
| CCC1(c2cccc(-c3ccnnc3)c2)C2=CN=NC2NC2=C1C(=O)CC(C)(C)C2 (stereo unspecified) [US20250313563, Compound 927342] | < 0.1 µM | < 0.1 µM |
| CC1(C)CC(=O)C2=C(C1)NC1N=NC=C1C21CCCS(=O)(=O)CC1 (stereo unspecified) [US20250313563, Compound 927343] | 0.1 to 1 µM | < 0.1 µM |
| CCC1(c2cccc(S(=O)(=O)C3CCOCC3)c2)C2=CN=NC2NC2=C1C(=O)CC(C)(C)C2 (stereo unspecified) [US20250313563, Compound 927344] | < 0.1 µM | < 0.1 µM |
| CC[C@]1(c2cccc(N(C)c3cccc(C(C)(F)F)c3)c2)C2=CN=NC2NC2=C1C(=O)CC(C)(C)C2 (stereo partly specified) [US20250313563, Compound 927345] | > 5 µM | > 5 µM |
